Laboratory results taken from publication PMC10092844, “Inhibition profile of trifludimoxazin towards PPO2 target site mutations” (Pest Management Science, 2022).
Substitutions are numbered along the chain they refer to.

Columns and labels:
PPO2 R128E ΔG210 = target: T1, PPO2 R128E ΔG210 (Amaranthus tuberculatus, UniProt Q0NZW9, DEL210/R128E); experiment: biochemical; type: biochemical
T1 sequence (Q0NZW9 with tags, fused parts or gaps R128E/DEL210): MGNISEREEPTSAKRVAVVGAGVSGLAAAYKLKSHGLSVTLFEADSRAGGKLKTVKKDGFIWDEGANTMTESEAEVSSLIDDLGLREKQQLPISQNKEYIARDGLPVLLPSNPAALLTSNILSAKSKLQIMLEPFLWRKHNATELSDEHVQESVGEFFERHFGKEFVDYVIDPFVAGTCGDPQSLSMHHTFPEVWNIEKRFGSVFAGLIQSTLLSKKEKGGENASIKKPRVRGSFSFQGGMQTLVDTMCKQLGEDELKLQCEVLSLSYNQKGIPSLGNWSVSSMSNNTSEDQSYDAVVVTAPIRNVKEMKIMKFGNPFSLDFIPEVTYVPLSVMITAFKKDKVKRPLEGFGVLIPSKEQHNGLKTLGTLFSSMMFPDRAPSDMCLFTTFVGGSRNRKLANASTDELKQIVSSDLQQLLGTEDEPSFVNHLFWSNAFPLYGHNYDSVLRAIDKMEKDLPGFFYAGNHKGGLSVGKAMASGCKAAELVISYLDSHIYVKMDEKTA

PPO2 R128C ΔG210 = target: T2, PPO2 R128C ΔG210 (Amaranthus tuberculatus, UniProt Q0NZW9, DEL210/R128C); experiment: biochemical; type: biochemical
T2 sequence (Q0NZW9 with tags, fused parts or gaps R128C/DEL210): T1 sequence (Q0NZW9 with tags, fused parts or gaps R128E/DEL210) with E98C

PPO2 R128A ΔG210 = target: T3, PPO2 R128A ΔG210 (Amaranthus tuberculatus, UniProt Q0NZW9, DEL210/R128A); experiment: biochemical; type: biochemical
T3 sequence (Q0NZW9 with tags, fused parts or gaps R128A/DEL210): T1 sequence (Q0NZW9 with tags, fused parts or gaps R128E/DEL210) with E98A

[1] = target: T4, PPO2 R128T ΔG210 in Escherichia coli hemG (Amaranthus tuberculatus, UniProt Q0NZW9, DEL210-210/R128T, cells depend on it); type: cell-based; details: read-out: IC50 (E. coli hemG growth)
T4 sequence (Q0NZW9 with tags, fused parts or gaps R128T/DEL210-210): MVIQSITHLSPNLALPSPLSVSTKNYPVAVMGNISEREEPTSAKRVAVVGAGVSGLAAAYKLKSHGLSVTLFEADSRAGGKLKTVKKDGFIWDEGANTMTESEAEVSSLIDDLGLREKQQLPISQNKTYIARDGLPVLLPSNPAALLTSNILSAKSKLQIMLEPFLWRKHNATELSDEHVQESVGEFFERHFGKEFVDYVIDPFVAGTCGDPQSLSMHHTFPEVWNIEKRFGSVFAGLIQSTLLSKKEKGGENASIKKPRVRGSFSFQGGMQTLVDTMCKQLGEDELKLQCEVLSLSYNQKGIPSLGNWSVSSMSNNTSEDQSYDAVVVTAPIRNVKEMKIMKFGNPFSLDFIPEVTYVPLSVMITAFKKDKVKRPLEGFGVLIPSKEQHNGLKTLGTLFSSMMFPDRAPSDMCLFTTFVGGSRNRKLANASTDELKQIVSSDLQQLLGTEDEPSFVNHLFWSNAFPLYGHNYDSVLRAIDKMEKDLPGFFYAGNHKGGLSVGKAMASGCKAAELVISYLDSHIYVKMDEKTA

[2] = target: T5, PPO2 R128Q ΔG210 in Escherichia coli hemG (Amaranthus tuberculatus, UniProt Q0NZW9, DEL210-210/R128Q, cells depend on it); type: cell-based; details: read-out: IC50 (E. coli hemG growth)
T5 sequence (Q0NZW9 with tags, fused parts or gaps R128Q/DEL210-210): T4 sequence (Q0NZW9 with tags, fused parts or gaps R128T/DEL210-210) with T128Q

PPO2 wild-type = PPO2 wild-type (Amaranthus tuberculatus, UniProt Q0NZW9); experiment: in vitro inhibition assay, recombinant PPO2 enzyme; type: biochemical
PPO2 wild-type, sequence (Q0NZW9 entry or part of it): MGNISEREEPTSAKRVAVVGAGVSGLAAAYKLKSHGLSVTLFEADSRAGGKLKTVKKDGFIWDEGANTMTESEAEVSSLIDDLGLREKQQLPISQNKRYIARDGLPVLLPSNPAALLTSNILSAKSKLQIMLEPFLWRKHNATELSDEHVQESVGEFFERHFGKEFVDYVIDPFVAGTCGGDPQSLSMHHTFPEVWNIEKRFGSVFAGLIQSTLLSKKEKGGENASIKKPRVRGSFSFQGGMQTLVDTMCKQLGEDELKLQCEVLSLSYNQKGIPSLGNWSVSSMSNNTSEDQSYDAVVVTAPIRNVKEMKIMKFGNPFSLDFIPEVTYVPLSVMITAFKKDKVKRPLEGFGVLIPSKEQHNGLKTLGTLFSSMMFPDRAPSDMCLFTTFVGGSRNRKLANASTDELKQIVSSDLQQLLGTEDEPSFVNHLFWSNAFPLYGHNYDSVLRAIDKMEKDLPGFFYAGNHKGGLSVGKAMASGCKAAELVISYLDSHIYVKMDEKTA

Compound	IC50 (PPO2 R128E ΔG210) [µM]	IC50 (PPO2 R128C ΔG210) [µM]	IC50 (PPO2 R128A ΔG210) [µM]	IC50 [1] [µM]	IC50 [2] [µM]	Resistance factor (PPO2 R128E ΔG210)	Resistance factor (PPO2 R128C ΔG210)	Resistance factor (PPO2 R128A ΔG210)	Resistance factor (PPO2 wild-type)
CS(=O)(=O)NC(=O)c1cc(Oc2ccc(C(F)(F)F)cc2Cl)ccc1[N+](=O)[O-] [Fomesafen, fomesafen]	> 10	> 10	> 10						
CCOC(=O)C(C)OC(=O)c1cc(Oc2ccc(C(F)(F)F)cc2Cl)ccc1[N+](=O)[O-] (stereo not drawn) [Lactofen, lactofen]	0.649	2.15		> 10	> 10				
CC(C)N(C)S(=O)(=O)NC(=O)c1cc(-n2c(=O)cc(C(F)(F)F)n(C)c2=O)c(F)cc1Cl [Saflufenacil, saflufenacil]	> 10	> 10	> 10	> 10	> 10				
C#CCN1C(=O)C(F)(F)Oc2cc(F)c(-n3c(=O)n(C)c(=S)n(C)c3=O)cc21 [Trifludimoxazin, trifludimoxazin]	0.00861	0.0311	0.033	0.0675	0.00986	35	127	135	1
